From patent US20080305186A1, “Method and Composition for the Treatment of Cardiac Hypertrophy” (BOARD OF REGENTS, THE UNIVERSITY OF TEXAS SYSTEM, priority 2007, published 2008)

Tested on: cardiac gene expression
Test: Microarray analysis of cardiac gene expression (GeneChip Mouse Genome 430 2.0)
Format: in vivo, mice
Settings: mouse heart, vs isoproterenol only (CH)
Procedure: Microarray Sample Preparation and Analysis. Animal hearts were rapidly removed, and the atria and right ventricles were cut and immediately plunged into TRIzol Reagent (Life Technologies). Total RNA was isolated following the manufacturer's instructions, purified by phenol-chloroform extraction and then ethanol precipitation, and 20 μg further processed for microarray analysis. Briefly, cDNA synthesis, in vitro transcription, and labeling and fragmentation to produce the oligonucleotide probes were performed as instructed by the GeneChip manufacturer (Affymetrix). The probes were first hybridized to a test array (Affymetrix) and then to the GeneChip Mouse Genome 430 2.0 Array, using the GeneChip Hybridization Oven 640. The chips were washed in a GeneChip Fluidics Station 450 (Affymetrix), and the results were visualized with a GeneChip G7 scanner (Affymetrix). RMA normalization, pairwise comparisons, Student's t test and Benjamini and Hochberg correction were subsequently performed using GeneSifter (VizX Labs, Seattle, Wash.) and Spotfire DecisionSite 8.3 (Spotfire, Inc., Somerville, Mass.).
Effects on Gene Expression Profile. […] One mouse heart was used for each array, and was performed in triplicate, generating a total of 12 arrays. GeneSifter was used to perform RMA normalization, pairwise comparisons of averaged signal intensity values, and Student's t-test with Benjamini and Hochberg correction, and Spotfire was used to perform pairwise comparisons. […] Additionally, genes that were altered between any two N or cardiac hypertrophy samples were removed, as these alterations most likely represented normal variations between mice.

## C[C@H]1c2cccc(O)c2C(=O)C2=C(O)[C@]3(O)C(=O)C(C(N)=O)=C(O)[C@@H](N(C)C)[C@@H]3[C@@H](O)[C@@H]21 [doxycycline]
CH vs normal 3.3
  FC cDNA, AK012898: −2.9 fold
CH vs normal 3.4
  FC Cyclin G2 (Ccng2), NM_007635: −3.1 fold
  FC TRAF2 and K interacting kinase (Tnik), AI117633: −3.4 fold
  FC cDNA, BB098431: −1.8 fold
CH vs normal 3.5
  FC Interleukin-1 receptor-associated kinase 3 (Irak3), AV228493: −2.1 fold
CH vs normal 3.6
  FC CD163 antigen (CD163), NM_053094: −2.1 fold
CH vs normal 3.7
  FC ATP-binding cassette, sub-family A (ABC1), member 1 (Abca1), BB305534: −1.9 fold
  FC Mcf.2 transforming sequee-like (Mcf21), AV293368: −2.3 fold
  FC cDNA, BE956710: −4.4 fold
  FC cDNA, BG276629: −3.1 fold
CH vs normal 3.8
  FC Lipopolysaccharide binding protein (Lbp), NM_008489: −3.4 fold
CH vs normal 3.9
  FC Alcohol dehydrogenase 1, complex (Adh1), BC013477: −3.4 fold
  FC Nuclear factor of kappa light polypeptide gene enhaer in B-cells inhibitor, zeta (Nfkbiz), NM_030612: −2.7 fold
  FC cDNA, BB038506: −2.1 fold
CH vs normal 4.0
  FC Alpha-2-HS-glycoprotein (Ahsg), AI256465: −2.7 fold
CH vs normal 4.1
  FC BCL2/adenovirus E1B interacting protein 1, NIP3 (Bnip3), NM_009760: −2.0 fold
  FC Chitinase 3-like 3 (Chi313), NM_009892: −4.1 fold
  FC Colony stimulating factor 2 receptor, beta 2, low-affinity (granulocyte-macrophage) (Csf2rb2), NM_007781: −2.9 fold
CH vs normal 4.3
  FC NADPH oxidase 4 (Nox4), BC021378: −3.2 fold
CH vs normal 4.4
  FC Calcium-sensitive chloride conductae protein-1 (Clca1), AF047838: −3.6 fold
  FC Connector enhaer of kinase suppressor of Ras 1 (Cnksr1), BB739754: −3.6 fold
CH vs normal 4.5
  FC cDNA, AK008807: −2.7 fold
CH vs normal 4.6
  FC Arrestin domain containing 2 (Arrdc2), AW542672: −3.5 fold
  FC cDNA, BM117672: −3.2 fold
CH vs normal 4.7
  FC Serum amyloid A 3 (Saa3), NM_011315: −4.1 fold
CH vs normal 4.9
  FC Caer related gene-liver 1 (CRG-L1), AF282864: −3.0 fold
  FC Calcium/calmodulin-dependent protein kinase II, beta (Camk2b), BG862223: −4.0 fold
CH vs normal 5.0
  FC Aryl hydrocarbon receptor nuclear translocator-like (Arnt1), BC011080: −5.1 fold
CH vs normal 5.1
  FC Oostatin receptor (Osmr), NM_011019: −2.6 fold
CH vs normal 5.2
  FC cDNA, BE634869: −2.8 fold
CH vs normal 5.3
  FC cDNA, BB795572: −2.3 fold
CH vs normal 5.4
  FC cDNA, AK009753: −3.0 fold
CH vs normal 5.5
  FC cDNA, AI607873: −4.0 fold
CH vs normal 6.0
  FC Cytokine inducible SH2-containing protein 3 (Socs3), BB241535: −3.5 fold
CH vs normal 6.4
  FC Apolipoprotein D (Apod), NM_007470: −3.4 fold
  FC Cytochrome P450, 1b1, benz(a)anthracene inducible (Cyp1b1), NM_009994: −3.2 fold
  FC Membrane-spanning 4-domains, subfamily A, member 6d (Ms4a6d), NM_026835: −2.3 fold
CH vs normal 6.6
  FC mVL30-1 retroelement mRNA sequee, BG066678: −4.2 fold
CH vs normal 6.8
  FC Proteoglycan 4 (megakaryocyte stimulating factor, articular superficial zone protein) (Prg4), NM_021400: −3.3 fold
CH vs normal 7.0
  FC cDNA, BF719154: −3.2 fold
CH vs normal 7.4
  FC CCAATenhaer binding protein (CEBP), delta (Cebpd), BB831146: −4.1 fold
  FC Ca(2+)-sensitive chloride channel 2 (Clca2), AF108501: −5.1 fold
  FC Lysyl oxidase (Lox), M65143: −2.7 fold
CH vs normal 7.8
  FC cDNA, AU018141: −3.2 fold
CH vs normal 8.2
  FC Cytokine inducible SH2-containing protein 3 (Socs3), BB831725: −4.9 fold
CH vs normal 10.6, first BF682848 line
  FC cDNA, BF682848: −5.7 fold
CH vs normal 10.8
  FC C-type (calcium dependent, carbohydrate recognition domain) lectin, superfamily member 8 (Clecsf8), NM_010819: −2.7 fold
CH vs normal 11.1
  FC Lysyl oxidase (Lox), NM_010728: −3.0 fold
CH vs normal 14.6
  FC Cyclin-dependent kinase inhibitor 1A (p21) (Cdkn1a), AK007630: −6.5 fold
CH vs normal 16.3
  FC FK506 binding protein 5 (51 kDa) (Fkbp5), BC015260: −4.5 fold
CH vs normal 21.4, second BF682848 line
  FC cDNA, BF682848: −5.2 fold
CH vs normal 27.7
  FC Lipocalin 2 (Lcn2), X14607: −13.3 fold
CH vs normal 40.5
  FC Serine protease inhibitor 2-2 (Spi2-2) (Serpin3n), NM_009252: −9.7 fold
CH vs normal −1.5
  FC Metallophosphoesterase domain containing 2 (Mpped2), AK012553: 2.0 fold
CH vs normal −1.6
  FC ATP-sensitive potassium channel subunit (Kir6.2) (Kcnj11), U73626: 1.8 fold
  FC CD99 antigen (CD99), AK002762: 1.6 fold
  FC CD248 antigen, endosialin (CD248), NM_054042: 1.7 fold
  FC cDNA, BB627097: 2.4 fold
  FC cDNA, BM229539: 2.1 fold
CH vs normal −1.7
  FC Cytoplasmic polyadenylation element binding protein 3 (Cpeb3), BB281000: 2.6 fold
